Laboratory results: US20040053822A1, “Inducing cellular immune responses to mage2/3 using peptide and nucleic acid compositions” (priority 2002, published 2004)

Key:
HLA-A*0206 = HLA-A*0206 (Homo sapiens, UniProt P04439, D140Y/D185E/D98H/E176V/E277Q/F33Y/G131W/G231S/I119V/I121R/I166T/I218V/L300P/L318F/N151K/N90K/P208A/P217A/Q86G/Q94H/R138H/R169H/T345S); assay: Purified HLA class I peptide binding assay, A*0206; conditions: binding affinity, A2 supermotif peptides and analogs
HLA-A*0201 = HLA-A*0201 (Homo sapiens, UniProt P04439, D140Y/D185E/D98H/E176V/E277Q/G131W/G231S/I119V/I121R/I166T/I218V/L300P/L318F/N151K/N90K/P208A/P217A/Q86G/Q94H/R138H/R169H/T345S); assay: Purified HLA class I peptide binding assay, A*0201; conditions: binding affinity, A2 supermotif peptides and analogs
HLA-A*0203 = HLA-A*0203 (Homo sapiens, UniProt P04439, A173T/D140Y/D185E/D98H/E277Q/G131W/G231S/I119V/I121R/I166T/I218V/L180W/L300P/L318F/N151K/N90K/P208A/P217A/Q86G/Q94H/R138H/R169H/T345S); assay: Purified HLA class I peptide binding assay, A*0203; conditions: binding affinity, A2 supermotif peptides and analogs
HLA-A*6802 = HLA-A*6802 (Homo sapiens, UniProt P04439, A269V/D140Y/D185E/E176V/E277Q/E87N/F33Y/G231S/I121R/I166T/I218V/L180W/L300P/L318F/N151K/P208A/P217A/Q86R/R138H/R169H/S129P/T345S/V36M); assay: Purified HLA class I peptide binding assay, A*6802; conditions: binding affinity, A2 supermotif peptides and analogs
[1] = test system: melanoma cell lines (624 mel and 888 mel); assay: Primary CTL induction, 51Cr release on tumor targets (endogenous recognition); format: cell-based, human; conditions: number of donors positive over total tested; tumor targets
Description: (§1) The melanoma cells were treated with 100 U/ml IFNγ (Genzyme) for 48 hours at 37° C. before use as targets in the ^51Cr release and in situ IFNγ assays.
(§2) Restimulation of the induction cultures with peptide-pulsed adherent cells: Seven and fourteen days after the primary induction the cells were restimulated with peptide-pulsed adherent cells. The PBMCS were thawed and washed twice with RPMI and DNAse. The cells were resuspended at 5×10^6 cells/ml and irradiated at ˜4200 rads. The PBMCs were plated at 2×10^6 in 0.5 ml complete medium per well and incubated for 2 hours at 37° C. The plates were washed twice with RPMI by tapping the plate gently to remove the nonadherent cells and the adherent cells pulsed with 10 μg/ml of peptide in the presence of 3 μg/ml β2 microglobulin in 0.25 ml RPMI/5% AB per well for 2 hours at 37° C. Peptide solution from each well was aspirated and the wells were washed once with RPMI. Most of the media was aspirated from the induction cultures (CD8+ cells) and brought to 0.5 ml with fresh media. The cells were then transferred to the wells containing the peptide-pulsed adherent cells. Twenty four hours later rhuman IL10 was added at a final concentration of 10 ng/ml and rhuman IL2 was added the next day and again 2-3 days later at 50 IU/ml (Tsai et al., Critical Reviews in Immunology 18(l-2):65-75, 1998). Seven days later the cultures were assayed for CTL activity in a ^51Cr release assay. In some experiments the cultures were assayed for peptide-specific recognition in the in situ IFNγ ELISA at the time of the second restimulation followed by assay of endogenous recognition 7 days later. After expansion, activity was measured in both assays for a side by side comparison.
Seven days after the second restimulation, cytotoxicity was determined in a standard (5 hr) ^51Cr release assay by assaying individual wells at a single E:T. Peptide-pulsed targets were prepared by incubating the cells with 10 μg/ml peptide overnight at 37° C.
Adherent target cells were removed from culture flasks with trypsin-EDTA. Target cells were labelled with 200 μCi of ^51Cr sodium chromate (Dupont, Wilmington, Del.) for 1 hour at 37° C. […] Target cells.(100 μl) and 100 μl of effectors were plated in 96 well round-bottom plates and incubated for 5 hours at 37° C. At that time, 100 μl of supernatant were collected from each well and percent lysis was determined according to the formula: [(cpm of the test sample−cpm of the spontaneous ^51Cr release sample)/(cpm of the maximal ^51Cr release sample−cpm of the spontaneous ^51Cr release sample)]×100. Maximum and spontaneous release were determined by incubating the labelled targets with 1% Trition X-100 and media alone, respectively.
CTL Expansion. […] The cells were split if the cell concentration exceeded 1×10^6/ml and the cultures were assayed between days 13 and 15 at E:T ratios of 30, 10, 3 and 1:1 in the ^51Cr release assay or at 1×10^6/ml in the in situ IFNγ assay using the same targets as before the expansion.
The A2-supermotif cross-reactive binding peptides that were selected for further evaluation were tested in the cellular assay for the ability to induce peptide-specific CTL in normal individuals.

[2] = test system: 0.221A2.1 cell line (peptide-loaded target); assay: Primary CTL induction from normal donor PBMC, 51Cr release on peptide-pulsed targets; format: cell-based, human; conditions: number of donors positive over the total number of donors tested
Description: as §1
The monocytes were purified by plating 10×10^6 PBMC/well in a 6-well plate. After 2 hours at 37° C., the non-adherent cells were removed by gently shaking the plates and aspirating the supernatants. The wells were washed a total of three times with 3 ml RPMI to remove most of the non-adherent and loosely adherent cells. Three ml of complete medium containing 50 ng/ml of GM-CSF and 1,000 U/ml of IL4 were then added to each well. DC were used for CTL induction cultures following 7 days of culture.
Induction of CTL with DC and Peptide: CD8+ T-cells were isolated by positive selection with Dynal immunomagnetic beads (Dynabeads® M-450) and the detacha-bead® reagent. Typically about 200-250×10^6 PBMC were processed to obtain 24×10^6 CD8^+ T-cells (enough for a 48-well plate culture). Briefly, the PBMCs were thawed in RPMI with 30 μg/ml DNAse, washed once with PBS containing 1% human AB serum and resuspended in PBS/1% AB serum at a concentration of 20×10^6 cells/ml. The magnetic beads were washed 3 times with PBS/AB serum, added to the cells (140 μl beads/20×10^6 cells) and incubated for 1 hour at 4° C. with continuous mixing. The beads and cells were washed 4× with PBS/AB serum to remove the nonadherent cells and resuspended at 100×10^6 cells/ml (based on the original cell number) in PBS/AB serum containing 100 μ/ml detacha-bead® reagent and 30 μg/ml DNAse. The mixture is incubated for 1 hour at room temperature with continuous mixing. The beads were washed again with PBS/AB/DNAse to collect the CD8+ T-cells. The DC were collected and centrifuged at 1300 rpm for 5-7 minutes, washed once with PBS with 1% BSA, counted and pulsed with 40 μg/ml of peptide at a cell concentration of 1-2×10^6/ml in the presence of 3 μg/ml β2- microglobulin for 4 hours at 20° C. The DC were then irradiated (4,200 rads), washed 1 time with medium and counted again.
Setting up induction cultures: 0.25 ml cytokine-generated DC (@1×10^5 cells/ml) were co-cultured with 0.25 ml of CD8+ T-cells (@2×10^6 cell/ml) in each well of a 48-well plate in the presence of 10 ng/ml of IL-7. rHuman IL10 was added the next day at a final concentration of 10 ng/ml and rhuman IL2 was added 48 hours later at 10 IU/ml.
as §2, with “comparison. […]” for “comparison.”

HLA-A*0202 = HLA-A*0202 (Homo sapiens, UniProt P04439, D140Y/D185E/D98H/E176V/E277Q/G131W/G231S/I119L/I121R/I166T/I218V/L180W/L300P/L318F/N151K/N90K/P208A/P217A/Q67R/Q86G/Q94H/R138H/R169H/T345S); assay: Purified HLA class I peptide binding assay, A*0202; conditions: binding affinity, A2 supermotif peptides and analogs

SMILES | IC50 (HLA-A*0206) [nM] | IC50 (HLA-A*0201) [nM] | IC50 (HLA-A*0203) [nM] | IC50 (HLA-A*6802) [nM] | CTL Tumor [1] | CTL Wild-type [2] | IC50 (HLA-A*0202) [nM]
CC[C@H](C)[C@H](NC(=O)[C@H](Cc1ccc(O)cc1)NC(=O)[C@H](CC(C)C)NC(=O)[C@@H](N)Cc1c[nH]cn1)C(=O)N[C@@H](Cc1ccccc1)C(=O)N[C@@H](C)C(=O)N[C@H](C(=O)N[C@@H](CS)C(=O)N[C@@H](CC(C)C)C(=O)NCC(=O)N[C@@H](CC(C)C)C(=O)O)[C@@H](C)O | > 10000 | 56 | 769 | 4490 | – | – | –
CC[C@H](C)[C@H](N)C(=O)N[C@@H](CCSC)C(=O)N1CCC[C@H]1C(=O)N[C@@H](CCCCN)C(=O)N[C@@H](C)C(=O)NCC(=O)N[C@@H](CC(C)C)C(=O)N[C@@H](CC(C)C)C(=O)N[C@H](C(=O)N[C@H](C(=O)N[C@H](C(=O)O)C(C)C)[C@@H](C)CC)[C@@H](C)CC | – | – | – | – | 0/3^ | 3/4 | –
CC(C)C[C@H](NC(=O)[C@H](Cc1ccc(O)cc1)NC(=O)[C@H](CCC(=O)O)NC(=O)[C@H](CO)NC(=O)[C@H](C)NC(=O)[C@@H](N)CCCCN)C(=O)N[C@@H](CCC(N)=O)C(=O)N[C@@H](CC(C)C)C(=O)N[C@H](C(=O)O)C(C)C | – | – | – | – | 0/2^ | 2/4 | –
CC[C@H](C)[C@H](NC(=O)[C@@H](N)CCCCN)C(=O)N[C@@H](Cc1c[nH]c2ccccc12)C(=O)N[C@@H](CCC(=O)O)C(=O)N[C@@H](CCC(=O)O)C(=O)N[C@@H](CC(C)C)C(=O)N[C@@H](CO)C(=O)N[C@@H](CCSC)C(=O)N[C@@H](CC(C)C)C(=O)O | – | 167 | 175 | > 10000 | – | – | 642
CC(C)C[C@H](NC(=O)[C@H](Cc1ccccc1)NC(=O)[C@H](Cc1c[nH]cn1)NC(=O)[C@@H](NC(=O)[C@H](CC(C)C)NC(=O)[C@H](CCC(=O)O)NC(=O)[C@H](C)NC(=O)[C@H](CC(C)C)NC(=O)[C@@H](N)CCCCN)C(C)C)C(=O)O | – | 20 | 5.9 | 400 | – | – | 6
CSCC[C@H](NC(=O)[C@@H](N)CCCCN)C(=O)N[C@@H](C)C(=O)N[C@@H](CCC(=O)O)C(=O)N[C@@H](CC(C)C)C(=O)N[C@H](C(=O)N[C@@H](Cc1c[nH]cn1)C(=O)N[C@@H](Cc1ccccc1)C(=O)N[C@@H](CC(C)C)C(=O)O)C(C)C | 26 | 24 | – | 286 | – | – | 6.7
CSCC[C@H](NC(=O)[C@@H](N)CCCCN)C(=O)N[C@@H](C)C(=O)N[C@@H](CCC(=O)O)C(=O)N[C@@H](CC(C)C)C(=O)N[C@H](C(=O)N[C@@H](Cc1c[nH]cn1)C(=O)N[C@@H](Cc1ccccc1)C(=O)N[C@H](C(=O)O)C(C)C)C(C)C | 39 | 26 | – | 170 | – | – | –
CSCC[C@H](NC(=O)[C@@H](N)CCCCN)C(=O)N[C@H](C(=O)N[C@@H](CCC(=O)O)C(=O)N[C@@H](CC(C)C)C(=O)N[C@H](C(=O)N[C@@H](Cc1c[nH]cn1)C(=O)N[C@@H](Cc1ccccc1)C(=O)N[C@@H](CC(C)C)C(=O)O)C(C)C)C(C)C | – | – | – | – | 0/1^ | 1/1 | –
CSCC[C@H](NC(=O)[C@@H](N)CCCCN)C(=O)N[C@H](C(=O)N[C@@H](CCC(=O)O)C(=O)N[C@@H](CC(C)C)C(=O)N[C@H](C(=O)N[C@@H](Cc1c[nH]cn1)C(=O)N[C@@H](Cc1ccccc1)C(=O)N[C@@H](CC(C)C)C(=O)N[C@@H](CC(C)C)C(=O)O)C(C)C)C(C)C | – | – | – | – | 0/1^ | 1/1 | –
CSCC[C@H](NC(=O)[C@@H](N)CCCCN)C(=O)N[C@H](C(=O)N[C@@H](CCC(=O)O)C(=O)N[C@@H](CC(C)C)C(=O)N[C@H](C(=O)N[C@@H](Cc1c[nH]cn1)C(=O)N[C@@H](Cc1ccccc1)C(=O)N[C@@H](CC(C)C)C(=O)N[C@@H](CC(C)C)C(=O)N[C@@H](CC(C)C)C(=O)O)C(C)C)C(C)C | – | – | – | – | 0/1^ | 1/1 | –
